The values below come from patent US20260335293A1, “USE OF NOVEL COMPOUND FOR TREATING INTRACTABLE DISEASES” (YJ CERAPEUTICS INC., priority 2023, published 2026).

The test system of one experiment is Occludin. Put plainly: Tight junction protein Occludin in bladder of SCI model, Western blot and immunofluorescence. Type of experiment: in vivo, Sprague-Dawley rats.
The subject of a further experiment is MPO-positive neutrophils. Nature of the experiment: Introduction of neutrophils (MPO) into bladder of SCI model, immunofluorescence. It is filed as in vivo, Sprague-Dawley rats. As to conditions: day 1 after SCI.
For the next experiment, the system named is TRPM7. Nature of the experiment: TRPM7 expression in SNI model, Western blot. Type of experiment: in vivo, Sprague-Dawley rats. As to conditions: 4 weeks after nerve injury. The protocol: FIG. 5C is a diagram showing results of analyzing the expression of TRMP7 in an SNI animal model by Western blot.
To determine through which signaling pathway YJ102 inhibited a neuroinflammatory response, there was analyzed increased expression and activation of histone demethylase JMJD3 and expression changes of factors associated with JAK/STAT3 pathway, mTOR pathway, and TRPM7-mediated pathway, which were known as important regulatory mechanisms and epigenetic regulators mediating the neuroinflammatory response, in the tissues of the SNI animal model 4 weeks after nerve injury.

Experiment [1] relates to proNGF in Raw 264.7 macrophage cell line. Nature of the experiment: proNGF expression in LPS-stimulated Raw 264.7 macrophage cell line. It is filed as cell-based. As to conditions: LPS 1 μg/ml; YJ102 30 minutes before LPS. The protocol: In order to determine whether YJ102 affected the production of proNGF as a ligand of p75, the expression of proNGF in the bladder was confirmed by RT-PCR, Western blot analysis, and immunofluorescence staining. In addition, for further verification, a macrophage cell line Raw 264.7 (Korea Cell Line Bank, Seoul, Korea) was stimulated with 1 μg/ml of LPS, and the effect of YJ102 on the production of proNGF was investigated. At this time, YJ102 was dissolved in DMSO and treated 30 minutes before LPS treatment.

A further experiment has as its system p75. Put plainly: p75 expression in urothelium of SCI model, RT-PCR and Western blot. Type of experiment: in vivo, Sprague-Dawley rats. As to conditions: after SCI.
In experiment [2] the test system is psoriasis (IMQ psoriasis animal model). Nature of the experiment: Erythema and scaling (PASI) in IMQ psoriasis model. It is filed as in vivo, C57BL/6 mouse. The protocol: (§1) Psoriasis caused by excessive production of skin cells was a chronic skin disease associated with various factors, including autoimmune diseases, and its symptoms included red and thickened skin and abnormally occurring scaling. […] Specifically, the back region of a C57BL/6 mouse (male, 18 to 20 g, 8 weeks) (Daehan Biolink, Eumseong, Korea) was shaved to remove hair, and then applied with IMQ cream (83 mg/day) (5%) for consecutive 5 days from Day 0 to Day 4 to induce psoriasis-like skin inflammation, and a normal control mouse (Sham) was applied with Vaseline cream (FIG. 16A).
(§2) In order to confirm the effect of YJ102 (Chemical Formula 1), a compound of the present disclosure, on psoriasis, YJ102 dissolved in DMSO, methyl pyrrolidinone, and water (1:1.5:1) was administered intraperitoneally (5 mg/kg) for a total of 3 days on Day 2, Day 3, and Day 4, and the Vehicle group was administered in the same amount of a solution of DMSO, methyl pyrrolidinone, and water (1:1.5:1) (FIG. 16A). To assess daily skin changes, PASI scores were used for erythema and scaling. The PASI score was evaluated as a severity scale of 0 to 4, in which 0 meant none, 1 meant mild, 2 meant moderate, 3 meant severe, and 4 meant very severe. (PASI Reference: Yashpal Manchanda, Abhishek De, Sudip Das, and Disha Chakraborty. Disease Assessment in Psoriasis. Indian J Dermatol. 2023 May-June; 68 (3): 278-281.)

Experiment [3] deals with skin tissue of psoriasis mouse model. Put plainly: Epidermal layer thickness and dermal cell introduction (H&E) in IMQ psoriasis model. It is filed as in vivo, C57BL/6 mouse. As to conditions: 5 mg/kg i.p. Days 2-4, Day 6. As for the experimental part:
as §1
as §2, with “(PASI Reference: Yashpal Manchanda, Abhishek De, Sudip Das, and Disha Chakraborty. Disease Assessment in Psoriasis. Indian J Dermatol. 2023 May-June; 68 (3): 278-281.)” left out
On day 6, the skin tissue of the psoriasis mouse model was stained with Hematoxyline & Eosin, and the epidermal layer thickness was measured. […]

The subject of a further experiment is p38MAPK. Put plainly: p38MAPK phosphorylation in spinal cord of SNI model, Western blot. It is filed as in vivo, Sprague-Dawley rats. The protocol:
To be used as a peripheral nerve injury animal model, a sciatic nerve injury (SNI) model was prepared (FIG. 1C). Specifically, 200 to 220 g of male adult Sprague-Dawley rats were anesthetized by intraperitoneal injection of chloral hydrate (500 mg/kg), and then three terminal branches (tibial, common peroneal, and sural nerves) of the right sciatic nerve were approached, and the tibia nerve and the peroneal nerve were tightly ligated with 4-0 silk, and neurectomy was performed at a distal 3 mm position of the ligation site. At this time, a Sham group was a group that exposed only the sciatic nerve without damage.
To analyze the activation of microglia in the spinal cord, which were known to play an important role in the induction/persistence of neuropathic pain, 4 weeks after nerve injury in the SNI animal model, the spinal cord of 4 and 5 lumbar vertebrae was stained with OX-42 to confirm changes in cell shape and intensity. […] The supernatant was transferred to a new microcentrifuge, the protein concentration was measured using a BCA kit, and samples for Western blot were prepared by adding a 1× sample buffer and boiling for 5 minutes. […]

The mark [4] stands for this setting: 5 mg/kg i.p. Days 2-4, vs Vehicle.

Take `CCc1ccc(N(C(=O)COC)c2nc3cc(Cl)ccc3o2)cc1` [YJ102]: in the experiment on Occludin (SCI day 1, Western blot), the “reduction in amount of Occludin” value is on record as “significantly inhibited”. In addition, the “reduction in Occludin in the urothelium” value with Occludin (after SCI, immunofluorescence) is on record as “inhibited”. In addition, in the experiment on MPO-positive neutrophils, the “introduction of MPO-positive neutrophils into the bladder” value is recorded as “significantly inhibited”. The “expression of TRPM7” value in the experiment on TRPM7 is recorded as “inhibited the expression”. Also, in experiment [1], the “mRNA expression of proNGF” value is “significantly inhibited” and the “protein expression of proNGF” value is on record as “significantly inhibited”. Further, the p75 expression entry with p75 (RT-PCR (mRNA)) is listed as “significantly reduced”. The p75 expression entry in the experiment on p75 (Western blot (protein)) is listed as “significantly reduced”. The “symptoms (erythema and scaling) on Day 6” value in experiment [2] (5 mg/kg i.p. Days 2-4, Day 6) was “appeared to be alleviated”. In addition, in experiment [2] (setting [4]), the “degree of erythema (PASI)” value is given as “significantly lower than that of the Vehicle group” and the “degree of scaling (PASI)” value is “significantly lower than that of the Vehicle group”. Besides, in experiment [3], the “number of cells introduced into the dermal layer” value is reported as “decreased to the Sham level” and the “reduction of epidermal layer thickness compared to Vehicle group” value is reported as “approximately 35%”. The “amount of p-p38MAPK” value with p38MAPK is “significantly reduced”.
